Earlier results as cited in patent publication US20030180387A1, “Method for increasing the antioxidative potential of selenium-containing aqueous solutions” (priority 2000, published 2003).
Where two headings read alike, the source gives them in different places.

In the case of O=[Se](O)O [selenite], the “Eo, standard redox potential” value (acidic environment) is given as −0.740 (acidic environment) Volt and the “Eo, standard redox potential” value (basic environment) is given as “+0.366 (basic environment) Volt”.
